Measurements published in ChEMBL document CHEMBL5725827, “2-pyridyloxy-3-ester-4-nitrile orexin receptor antagonists” (2017).

Target: Orexin/Hypocretin receptor type 1 (Rattus norvegicus, UniProt P56718)
Assay: Radioligand Binding Assay: Described in Bergman et. al. Bioorg. Med. Chem. Lett. 2008, 18, 1425-1430.
Parameters: species or system Homo sapiens

Sequence of Orexin/Hypocretin receptor type 1 (P56718 whole entry, looked up): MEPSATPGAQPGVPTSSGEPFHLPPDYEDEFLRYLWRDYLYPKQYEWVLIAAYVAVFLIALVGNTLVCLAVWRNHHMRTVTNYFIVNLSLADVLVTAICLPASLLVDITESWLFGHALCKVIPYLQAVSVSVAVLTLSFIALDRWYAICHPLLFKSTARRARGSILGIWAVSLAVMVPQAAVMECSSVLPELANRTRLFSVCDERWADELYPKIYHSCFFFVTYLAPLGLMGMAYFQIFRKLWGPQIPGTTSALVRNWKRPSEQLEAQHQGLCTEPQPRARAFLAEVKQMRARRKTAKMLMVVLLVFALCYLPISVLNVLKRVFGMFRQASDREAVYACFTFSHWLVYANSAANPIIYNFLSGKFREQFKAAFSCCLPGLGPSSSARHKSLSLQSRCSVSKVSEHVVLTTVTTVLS

Ki	Structure (SMILES)
56 nM	COC(=O)c1c(C#N)ccnc1O[C@@H]1CC[C@@H](C)N(C(=O)c2ccccc2-n2nccn2)C1
153 nM	COC(=O)c1c(C#N)ccnc1O[C@@H]1CC[C@@H](C)N(C(=O)c2cc(F)ccc2-c2nc(C)no2)C1
128 nM	COC(=O)c1c(C#N)ccnc1O[C@@H]1CC[C@@H](C)N(C(=O)c2cccc(F)c2-c2noc(C)n2)C1
210 nM	COC(=O)c1c(C#N)ccnc1O[C@@H]1CC[C@@H](C)N(C(=O)c2cccc(F)c2-n2nccn2)C1
73.8 nM	COC(=O)c1c(C#N)ccnc1O[C@@H]1CC[C@@H](C)N(C(=O)c2ccccc2-c2nc(C)no2)C1
46 nM	COC(=O)c1c(C#N)ccnc1O[C@@H]1CC[C@@H](C)N(C(=O)c2cc(F)ccc2-c2ncccn2)C1
405 nM	COC(=O)c1c(C#N)ccnc1O[C@@H]1CC[C@@H](C)N(C(=O)c2ccc(F)cc2-c2nc(C)no2)C1
75.6 nM	COC(=O)c1c(C#N)ccnc1O[C@@H]1CC[C@@H](C)N(C(=O)c2ccc(F)cc2-c2ncccn2)C1
144 nM	COC(=O)c1c(C#N)ccnc1O[C@@H]1CC[C@@H](C)N(C(=O)c2cc(F)ccc2-n2nccn2)C1
86.6 nM	COC(=O)c1c(C#N)ccnc1O[C@@H]1CC[C@@H](C)N(C(=O)c2ccccc2-c2noc(C)n2)C1
25.8 nM	COC(=O)c1c(C#N)ccnc1O[C@@H]1CC[C@@H](C)N(C(=O)c2cc(C)ccc2-n2nccn2)C1
175 nM	COC(=O)c1c(C#N)ccnc1O[C@@H]1CC[C@@H](C)N(C(=O)c2ccc(F)cc2-n2nccn2)C1
117 nM	COC(=O)c1c(C#N)ccnc1O[C@@H]1CC[C@@H](C)N(C(=O)c2cc(F)ccc2-c2noc(C)n2)C1
37.1 nM	COC(=O)c1c(C#N)ccnc1O[C@@H]1CC[C@@H](C)N(C(=O)c2c(C)cccc2-n2nccn2)C1
63 nM	COC(=O)c1c(C#N)ccnc1O[C@@H]1CC[C@@H](C)N(C(=O)c2c(F)cccc2-n2nccn2)C1
